Reference: patent publication US20230414578A1, “PHARMACEUTICAL COMPOSITION” (KOWA COMPANY, LTD., priority 2017, published 2023)

Tests used:
[1] = Test Example 3: interaction study, visual examination of discoloration; assay type: physicochemical
Procedure: The states (the presence or absence of discoloration) of the samples before the start of storage and after storage at 60°G for 2 weeks were visually examined.

[2] = Test Example 1: storage stability of pemafibrate alone (HPLC related substances); assay type: physicochemical
Procedure: In Test Examples below, measurement was performed through HPLC using an ODS column as a column and an ultraviolet spectrophotometer as a detector. 250 mg of pemafibrate was encapsulated in a polypropylene container (tight container defined in The Japanese Pharmacopoeia, 17th Edition, General Rules), and stored in a dark place at a temperature of 60° C. for 1 month. The amounts of pemafibrate-derived decomposition products (related substances) before the start of storage and after storage at 60° C. for 1 month were evaluated through the following method. The sum of related substance-derived peak areas was evaluated in terms of a ratio (%) to the pemafibrate-derived peak area using an HPLC apparatus, and the ratio was defined as the “Total amount (%) of related substances”.

State, Before storage ([1]; before start of storage): White
State, After storage at 60° C. for 2 weeks ([1]; polypropylene tight container, dark place, 60° C., 2 weeks): White
increase in the amount of related substances (in words) ([2]; after storage at 60° C. for 1 month): no substantive increase
Total amount (%) of related substances, Before storage ([2]; before start of storage, sum of related substance peak areas as ratio to pemafibrate peak area, HPLC): <0.05%
Total amount (%) of related substances, After storage at 60° C. for 1 month ([2]; polypropylene tight container, dark place, 60° C., 1 month, HPLC peak area ratio): <0.05%
Structure (SMILES): CC[C@@H](Oc1cccc(CN(CCCOc2ccc(OC)cc2)c2nc3ccccc3o2)c1)C(=O)O [Pemafibrate alone, (2R)-2-[3-([1,3-Benzoxazol-2-yl[3-(4-methoxyphenoxy)propyl]amino]methyl)phenoxy]butanoic acid]
